Experimental data published in ChEMBL document CHEMBL5543137, “Design and Synthesis of Novel Ultralong-Acting Peptides as EDP-EBP Interaction Inhibitors for Pulmonary Fibrosis Treatment” (J Med Chem, 2024).
Active and inactive are the calls of the source. The rule behind the calls is not given here. Starred links: 1 amine or outer side, 2 acyl side, 3 side chain; linkers in the order of their positions; H or OH if unused. Non-standard residues stand in square brackets, D forms with d. Residues, ends and D or L forms follow the SMILES beside them. *: point of attachment. C20 diacid = O=C(O)CCCCCCCCCCCCCCCCCCC(=O)*; γGlu = O=C(O)[C@H](CCC(=O)[*:2])N[*:1]; Iva = CC[C@](C)(N)C(=O)O; PEG2 = NCCOCCOCCC(=O)O

Experiments:
[1] = system: Mus musculus; test: (§1) Antifibrotic activity against BLM-induced C57BL/6 mouse pulmonary fibrosis model assessed as downregulation of Acta2 gene expression in lung tissue at 150 ug/kg, sc administered for 2 weeks starting from 7 days post BLM induction and measured after 21 days post BLM induction by RT-qPCR assay; assay type: functional, organism-based; conditions: dose 150.0 µg/kg
[2] = system: Mus musculus; test: Antifibrotic activity against BLM-induced C57BL/6 mouse pulmonary fibrosis model assessed as reduction in spp1 gene expression at 240 ug/kg/day, sc administered for 2 weeks starting from 7 days post BLM induction and measured after 21 days post BLM induction by ScRNA-sequencing analysis; assay type: functional, organism-based; conditions: dose 240.0 µg/kg/day
[3] = system: A549; test: Antifibrotic activity against BLM-induced human A549 cells cocultured with RAW264.7 cells assessed as reduction in Vimentin expression at 10 uM after 24 hrs by Western blotting analysis; assay type: functional, cell-based
[4] = system: Mus musculus; test: Antifibrotic activity against BLM-induced C57BL/6 mouse pulmonary fibrosis model assessed as reduction in proportion of fibroblasts at 240 ug/kg/day, sc administered for 2 weeks starting from 7 days post BLM induction and measured after 21 days post BLM induction; assay type: functional, organism-based; conditions: dose 240.0 µg/kg/day
[5] = system: Mus musculus; test: Antifibrotic activity against BLM-induced C57BL/6 mouse pulmonary fibrosis model assessed as reduction in ECM1 gene expression at 240 ug/kg/day, sc administered for 2 weeks starting from 7 days post BLM induction and measured after 21 days post BLM induction by ScRNA-sequencing analysis; assay type: functional, organism-based; conditions: dose 240.0 µg/kg/day
[6] = system: Mus musculus; test: Antifibrotic activity against BLM-induced sc dosed C57BL/6 mouse pulmonary fibrosis model assessed as minimum effective dose administered for 2 weeks starting from 7 days post BLM induction and measured after 21 days post BLM induction; assay type: functional; conditions: C57BL/6, 336 h, dose 30-240 µg/kg, read-out: MED
[7] = system: A549; test: Inhibition of EBP signaling pathway in TGFalpha induced human A549 cells assessed as reduction in PI3K phosphorylation at 10 uM incubated for 24 hrs by Western blotting analysis; assay type: cell-based
[8] = system: A549; test: Inhibition of EBP signaling pathway in TGFalpha induced human A549 cells assessed as reduction in AKT phosphorylation at 10 uM incubated for 24 hrs by Western blotting analysis; assay type: cell-based
[9] = system: Mus musculus; test: Antifibrotic activity against BLM-induced C57BL/6 mouse pulmonary fibrosis model assessed as reduction in Timp1 gene expression at 240 ug/kg/day, sc administered for 2 weeks starting from 7 days post BLM induction and measured after 21 days post BLM induction by ScRNA-sequencing analysis; assay type: functional, organism-based; conditions: dose 240.0 µg/kg/day
[10] = system: A549; test: Antifibrotic activity against TNFalpha-induced human A549 cells assessed as downregulation of vimentin expression level at 10 uM incubated for 24 hrs by Western blotting analysis; assay type: functional, cell-based
[11] = system: A549; test: Inhibition of EBP signaling pathway in TGFalpha induced human A549 cells assessed as reduction in ERK phosphorylation at 10 uM incubated for 24 hrs by Western blotting analysis; assay type: cell-based
[12] = system: Mus musculus; test: Antifibrotic activity against BLM-induced C57BL/6 mouse pulmonary fibrosis model assessed as increase in ECM degradation at 240 ug/kg/day, sc administered for 2 weeks starting from 7 days post BLM induction and measured after 21 days post BLM induction by gene enrichment analysis; assay type: functional, organism-based; conditions: dose 240.0 µg/kg/day
[13] = Half-life in Sprague-Dawley rat serum at 0.12 mg/kg, sc administered as single dose measured upto 10 days by LC-MS/MS method; assay type: ADME, organism-based; conditions: time < 10 day
[14] = system: Mus musculus; test: Antifibrotic activity against BLM-induced C57BL/6 mouse pulmonary fibrosis model assessed as reduction in Fstl1 gene expression at 240 ug/kg/day, sc administered for 2 weeks starting from 7 days post BLM induction and measured after 21 days post BLM induction by ScRNA-sequencing analysis; assay type: functional, organism-based; conditions: dose 240.0 µg/kg/day
[15] = Stability in rat serum measured upto 48 hrs by LC-MS/MS method; assay type: ADME, cell-free
[16] = system: A549; test: Downregulation of EDP level in TNFalpha induced human A549 cells at 1 to 10 uM; assay type: functional, cell-based; conditions: dose 1-10 µM
[17] = system: Mus musculus; test: as §1, with “reduction” for “downregulation of Acta2 gene expression”, “fibrotic accumulation in lungs” for “lung tissue”, “immunohistochemical staining based” for “RT-qPCR”; assay type: functional, organism-based; conditions: dose 150.0 µg/kg
[18] = Tmax in Sprague-Dawley rat serum at 0.12 mg/kg, sc administered as single dose measured upto 10 days by LC-MS/MS method; assay type: ADME, organism-based; conditions: time < 10 day
[19] = system: Mus musculus; test: Antifibrotic activity against BLM-induced C57BL/6 mouse pulmonary fibrosis model assessed as reduction in Ctgf gene expression at 240 ug/kg/day, sc administered for 2 weeks starting from 7 days post BLM induction and measured after 21 days post BLM induction by ScRNA-sequencing analysis; assay type: functional, organism-based; conditions: dose 240.0 µg/kg/day
[20] = system: Mus musculus; test: Antifibrotic activity against BLM-induced C57BL/6 mouse pulmonary fibrosis model assessed as reduction in lung vimentin expression at 240 ug/kg/day, sc administered for 2 weeks starting from 7 days post BLM induction and measured after 21 days post BLM induction by Western blotting analysis; assay type: functional, organism-based; conditions: dose 240.0 µg/kg/day
[21] = system: Mus musculus; test: Antifibrotic activity against BLM-induced C57BL/6 mouse pulmonary fibrosis model assessed as reduction in Thbs gene expression at 240 ug/kg/day, sc administered for 2 weeks starting from 7 days post BLM induction and measured after 21 days post BLM induction by ScRNA-sequencing analysis; assay type: functional, organism-based; conditions: dose 240.0 µg/kg/day
[22] = system: RAW264.7; test: Antifibrotic activity against BLM-induced mouse RAW264.7 cells assessed as upregulation of MMP-12 mRNA expression at 10 uM incubated for 6 to 24 hrs by RT-qPCR analysis; assay type: functional, cell-based; conditions: time 6-24 hrs
[23] = system: Mus musculus; test: Antifibrotic activity against BLM-induced sc dosed C57BL/6 mouse pulmonary fibrosis model assessed as reversal of lung indices administered for 2 weeks starting from 7 days post BLM induction and measured after 21 days post BLM induction; assay type: functional, organism-based; conditions: dose 30-240 µg/kg
[24] = species on record: Homo sapiens; test: Inhibition of neuraminidase (unknown origin) at 0.005 to 500 uM; conditions: dose 0.005-500 µM
[25] = Half life in cynomolgus monkey at 0.06 mg/kg, sc administered as single dose measured upto 30 days by LC-MS/MS method; assay type: ADME, organism-based, Macaca fascicularis; conditions: in vivo, time < 30 day
[26] = system: RAW264.7; test: Upregulation of MMP-12 expression in mouse RAW264.7 cells at 10 uM incubated for 6 to 24 hrs; assay type: functional, cell-based; conditions: time 6-24 hrs
[27] = system: TC-1; test: Antifibrotic activity against BLM-induced mouse TC-1 cells assessed as reduction in FN expression at 10 uM after 24 hrs by Western blotting analysis; assay type: functional, cell-based
[28] = system: Mus musculus; test: Antifibrotic activity against BLM-induced C57BL/6 mouse pulmonary fibrosis model assessed as reduction in Col5a1 gene expression at 240 ug/kg/day, sc administered for 2 weeks starting from 7 days post BLM induction and measured after 21 days post BLM induction by ScRNA-sequencing analysis; assay type: functional, organism-based; conditions: dose 240.0 µg/kg/day
[29] = system: Mus musculus; test: Antifibrotic activity against BLM-induced C57BL/6 mouse pulmonary fibrosis model assessed as downregulation of TNFalpha gene expression in lung tissue at 150 ug/kg, sc administered for 2 weeks starting from 7 days post BLM induction and measured after 21 days post BLM induction by RT-qPCR assay; assay type: functional, organism-based; conditions: dose 150.0 µg/kg
[30] = system: Mus musculus; test: Antifibrotic activity against BLM-induced sc dosed C57BL/6 mouse pulmonary fibrosis model assessed as reversal of body weight indices administered for 2 weeks starting from 7 days post BLM induction and measured after 21 days post BLM induction; assay type: functional, organism-based; conditions: dose 30-240 µg/kg
[31] = system: Mus musculus; test: Antifibrotic activity against BLM-induced C57BL/6 mouse pulmonary fibrosis model assessed as reversal of fibroblast activating effect at 240 ug/kg/day, sc administered for 2 weeks starting from 7 days post BLM induction and measured after 21 days post BLM induction; assay type: functional, organism-based; conditions: dose 240.0 µg/kg/day

For `CC[C@](C)(NC(=O)[C@@H](NC(=O)CCOCCOCCNC(=O)CCOCCOCCNC(=O)CC[C@H](NC(=O)CCCCCCCCCCCCCCCCCCC(=O)O)C(=O)O)C(C)C)C(=O)NCC(=O)N[C@@H](CO)C(=O)N1CCC[C@H]1C(=O)N[C@@H](CO)C(=O)N[C@@H](C)C(=O)N[C@@H](CCC(N)=O)C(=O)N[C@@H](CCC(=O)O)C(=O)N[C@@H](CCC(=O)O)C(=O)N[C@@H](C)C(=O)N[C@@H](CO)C(=O)N1CCC[C@H]1C(=O)N[C@@H](C)C(N)=O` ({C20 diacid-γGlu-PEG2-PEG2}-V[Iva]GSPSAQEEASPA-NH2), the Activity [1] was “Active”, the Activity [2] was “Active” and the Activity [3] was “Active”. For the same molecule, the Activity [4] was “Active”, the Activity [5] was “Active” and the minimal effective dose [6] was 0.03 mg/kg. For the same molecule, the inhibition [7] was “Active”, the inhibition [8] was “Active” and the Activity [9] was “Active”. For the same molecule, the Activity [10] was “Active”, the inhibition [11] was “Active” and the Activity [12] was “Active”. For the same molecule, the half-life [13] was 33 h, the Activity [14] was “Active” and the Stability [15] was “Stable”. The Activity [16] was “Dose-Dependent Effect”, the Activity [17] was “Active” and the Tmax [18] was 24 h. For the same molecule, the Activity [19] was “Active”, the Activity [20] was “Active” and the Activity [21] was “Active”. For the same molecule, the Activity [22] was “Active”, the Activity [23] was “Dose-Dependent Effect” and the inhibition [24] was “Active”. The half-life [25] was 257 h, the Activity [26] was “inactive” and the Activity [27] was “Active”. The Activity [28] was “Active”, the Activity [29] was “Active” and the Activity [30] was “Dose-Dependent Effect”. For the same molecule, the Activity [31] was “Active”.
